Laboratory results from patent US11076594B2, “Pyrazolone compound or salt thereof, preparation method therefor, herbicide composition and use thereof” (QINGDAO KINGAGROOT CHEMICAL COMPOUNDS CO., LTD., priority 2015, dated 2021).

Assays:
Format in all cases: in vivo
Conditions in all cases: post-emergence spray at 4-5 leaf stage, 250 g/ha active ingredient with 450 kg/ha water, rated after 3 weeks in greenhouse
corn = test: post-emergence stage experiment, crop (Table 1)
Procedure: (§1) The activity level standard of harmful plant destruction (i.e. growth control rate) is as follows: The above described growth control rate is fresh weight control rate. Monocotyledonous and dicotyledonous weed seeds and main crop seeds (i.e. wheat, corn, rice, soybean, cotton, oilseed, millet and sorghum.) were put into a plastic pot loaded with soil. Then covered with 0.5-2 cm soil, the seeds were allowed to grow in good greenhouse environment. The test plants were treated at 4-5 leaf stage 2-3 weeks after sowing. The test compounds of the invention were dissolved with acetone respectively, then added with 80 tween and diluted by certain amount of water to certain concentration. The solution was sprayed to the plants with a sprayer. Then the plants were cultured for 3 weeks in the greenhouse.

wheat = test: post-emergence stage experiment, crop (Table 1)
Procedure: as §1

bidens bipinnata = test: weed control effect in post-emergence stage (Table 1); set-up: key: Level 10: completely dead; Level 9: above 95% growth control rate; Level 8: above 90% growth control rate; Level 7: above 80% growth control rate; Level 6: above 70% growth control rate; Level 5: above 60% growth control rate; Level 4: above 50% growth control rate; Level 3: above 20% growth control rate; Level 2: 5%-20% growth control rate; Level 1: below 5% growth control rate
Procedure: as §1

rorippa indica = test: as above; set-up: key: Level 10: completely dead; Level 9: above 95% growth control rate; Level 8: above 90% growth control rate; Level 7: above 80% growth control rate; Level 6: above 70% growth control rate; Level 5: above 60% growth control rate; Level 4: above 50% growth control rate; Level 3: above 20% growth control rate; Level 2: 5%-20% growth control rate; Level 1: below 5% growth control rate
Procedure: as §1

crab grass = test: as above; set-up: key: Level 10: completely dead; Level 9: above 95% growth control rate; Level 8: above 90% growth control rate; Level 7: above 80% growth control rate; Level 6: above 70% growth control rate; Level 5: above 60% growth control rate; Level 4: above 50% growth control rate; Level 3: above 20% growth control rate; Level 2: 5%-20% growth control rate; Level 1: below 5% growth control rate
Procedure: as §1

Indian mallow = test: as above; set-up: key: Level 10: completely dead; Level 9: above 95% growth control rate; Level 8: above 90% growth control rate; Level 7: above 80% growth control rate; Level 6: above 70% growth control rate; Level 5: above 60% growth control rate; Level 4: above 50% growth control rate; Level 3: above 20% growth control rate; Level 2: 5%-20% growth control rate; Level 1: below 5% growth control rate
Procedure: as §1

echinochloa = test: as above; set-up: key: Level 10: completely dead; Level 9: above 95% growth control rate; Level 8: above 90% growth control rate; Level 7: above 80% growth control rate; Level 6: above 70% growth control rate; Level 5: above 60% growth control rate; Level 4: above 50% growth control rate; Level 3: above 20% growth control rate; Level 2: 5%-20% growth control rate; Level 1: below 5% growth control rate
Procedure: as §1

foxtail = test: as above; set-up: key: Level 10: completely dead; Level 9: above 95% growth control rate; Level 8: above 90% growth control rate; Level 7: above 80% growth control rate; Level 6: above 70% growth control rate; Level 5: above 60% growth control rate; Level 4: above 50% growth control rate; Level 3: above 20% growth control rate; Level 2: 5%-20% growth control rate; Level 1: below 5% growth control rate
Procedure: as §1

rice = test: post-emergence stage experiment, crop (Table 1)
Procedure: as §1

Compound | effect on crop, Wheat (level) (wheat) | effect on crop, Corn (level) (corn) | weed control effect, Bidens bipinnata (level) (bidens bipinnata) | weed control effect, Rorippa indica (level) (rorippa indica) | weed control effect, Crab grass (level) (crab grass) | weed control effect, Indian mallow (level) (Indian mallow) | weed control effect, Echinochloa (level) (echinochloa) | weed control effect, Green foxtail (level) (foxtail) | effect on crop, Rice (level) (rice)
CCn1nc(C2CC2)c(C(=O)c2ccc(C(F)(F)F)c(-n3cc(C)cn3)c2Cl)c1OC(=O)c1cn(C)nc1C [Compound 145] | 1 (Level 1: below 5% growth control rate) | 0 | 10 | 1 (Level 1: below 5% growth control rate) | 4 (Level 4: above 50% growth control rate) | 4 (Level 4: above 50% growth control rate) | 10 | 8 (Level 8: above 90% growth control rate) | 9 (Level 9: above 95% growth control rate)
Cc1nn(C)cc1C(=O)Oc1c(C(=O)c2ccc(C(F)(F)F)c(N3CCCCC3=O)c2Cl)c(C)nn1C [Compound 038] | 1 (Level 1: below 5% growth control rate) | 0 | 2 (Level 2: 5%-20% growth control rate) | 10 | 6 (Level 6: above 70% growth control rate) | 10 | 9 (Level 9: above 95% growth control rate) | 10 | 6 (Level 6: above 70% growth control rate)
Cc1nn(C)cc1C(=O)Oc1c(C(=O)c2ccc(C(F)(F)F)c(N3CCCCCC3=O)c2Cl)c(C2CC2)nn1C [Compound 062] | 3 (Level 3: above 20% growth control rate) | 1 (Level 1: below 5% growth control rate) |  | 10 | 8 (Level 8: above 90% growth control rate) | 10 | 7 (Level 7: above 80% growth control rate) | 3 (Level 3: above 20% growth control rate) | 5 (Level 5: above 60% growth control rate)
Cn1cc(C(=O)Oc2c(C(=O)c3ccc(C(F)(F)F)c(N4CCCC4=O)c3Cl)cnn2C)cn1 [Compound 017] | 1 (Level 1: below 5% growth control rate) | 4 (Level 4: above 50% growth control rate) | 5 (Level 5: above 60% growth control rate) |  | 10 | 10 | 6 (Level 6: above 70% growth control rate) | 10 | 7 (Level 7: above 80% growth control rate)
Cc1nn(C)c(OC(=O)c2cnn(C)c2)c1C(=O)c1ccc(C(F)(F)F)c(N2CCCCC2=O)c1Cl [Compound 039] |  | 2 (Level 2: 5%-20% growth control rate) | 2 (Level 2: 5%-20% growth control rate) | 10 | 9 (Level 9: above 95% growth control rate) | 10 | 10 | 10 | 6 (Level 6: above 70% growth control rate)
Cn1nc(C2CC2)c(C(=O)c2ccc(C(F)(F)F)c(N3CCCCCC3=O)c2Cl)c1O [Compound 059] | 2 (Level 2: 5%-20% growth control rate) | 1 (Level 1: below 5% growth control rate) |  | 10 | 5 (Level 5: above 60% growth control rate) | 10 | 6 (Level 6: above 70% growth control rate) | 9 (Level 9: above 95% growth control rate) | 3 (Level 3: above 20% growth control rate)
Cc1cnn(-c2c(C(F)(F)F)ccc(C(=O)c3c(C4CC4)nn(C)c3OC(=O)c3cnn(C)c3)c2Cl)c1 [Compound 091] | 1 (Level 1: below 5% growth control rate) | 1 (Level 1: below 5% growth control rate) | 5 (Level 5: above 60% growth control rate) |  | 2 (Level 2: 5%-20% growth control rate) | 10 | 6 (Level 6: above 70% growth control rate) | 7 (Level 7: above 80% growth control rate) | 6 (Level 6: above 70% growth control rate)

Now from value to molecule, other results behind:

effect on crop, Wheat (level) (wheat) | Compound | effect on crop, Corn (level) (corn) | weed control effect, Bidens bipinnata (level) (bidens bipinnata) | weed control effect, Rorippa indica (level) (rorippa indica) | weed control effect, Crab grass (level) (crab grass) | weed control effect, Indian mallow (level) (Indian mallow) | weed control effect, Echinochloa (level) (echinochloa) | weed control effect, Green foxtail (level) (foxtail) | effect on crop, Rice (level) (rice)
0 | Cc1cnn(-c2c(C(F)(F)F)ccc(C(=O)c3cnn(C)c3OC(=O)c3cnn(C)c3)c2Cl)c1 [Compound 083] | 4 (Level 4: above 50% growth control rate) | 5 (Level 5: above 60% growth control rate) |  | 6 (Level 6: above 70% growth control rate) | 10 | 6 (Level 6: above 70% growth control rate) | 8 (Level 8: above 90% growth control rate) | 2 (Level 2: 5%-20% growth control rate)
2 (Level 2: 5%-20% growth control rate) | Cc1nn(C)cc1C(=O)Oc1c(C(=O)c2ccc(C(F)(F)F)c(-n3cccn3)c2Cl)c(C2CC2)nn1C [Compound 075] | 3 (Level 3: above 20% growth control rate) |  | 10 | 4 (Level 4: above 50% growth control rate) | 10 | 6 (Level 6: above 70% growth control rate) | 10 | 7 (Level 7: above 80% growth control rate)
0 | Cc1cnn(-c2c(C(F)(F)F)ccc(C(=O)c3c(C)nn(C)c3OC(=O)c3cnn(C)c3)c2Cl)c1 [Compound 087] | 4 (Level 4: above 50% growth control rate) | 5 (Level 5: above 60% growth control rate) |  | 9 (Level 9: above 95% growth control rate) | 10 | 6 (Level 6: above 70% growth control rate) | 10 | 6 (Level 6: above 70% growth control rate)
0 | Cn1cc(C(=O)Oc2c(C(=O)c3ccc(C(F)(F)F)c(-n4cccn4)c3Cl)cnn2C)cn1 [Compound 066] | 3 (Level 3: above 20% growth control rate) | 6 (Level 6: above 70% growth control rate) |  | 6 (Level 6: above 70% growth control rate) | 10 | 6 (Level 6: above 70% growth control rate) | 10 | 3 (Level 3: above 20% growth control rate)
2 (Level 2: 5%-20% growth control rate) | Cn1cc(C(=O)Oc2c(C(=O)c3ccc(C(F)(F)F)c(-n4cccn4)c3Cl)c(C3CC3)nn2C)cn1 [Compound 076] | 4 (Level 4: above 50% growth control rate) | 4 (Level 4: above 50% growth control rate) |  | 5 (Level 5: above 60% growth control rate) | 10 | 7 (Level 7: above 80% growth control rate) | 10 | 9 (Level 9: above 95% growth control rate)
